Measurements: US20230053540A1, “TREATMENT OF LIVER INJURY” (Massachusetts Institute of Technology, priority 2019, published 2023)

System: hepatocytes
Assay: Seq-Well scRNA-Seq of hepatocytes after APAP overdose (signature scores, DEG vs untreated)
Type: in vivo, mouse
Details: A6 vs UT

`CC(=O)Nc1ccc(O)cc1` [APAP, acetaminophen] was tested, and the “Plbd2 pct.1” value was 0.344, the “Plcxd2 A6logFC” value was −0.2752 and the “Plcxd2 avg_logFC” value was −0.2752. The “Plcxd2 pct.1” value was 0.162, the “Plec avg_logFC” value was 0.4675 and the “Plec pct.1” value was 0.422. The “Plek avg_logFC” value was 0.3089, the “Plek pct.1” value was 0.11 and the “Plin2 avg_logFC” value was 1.461. For the same compound, the “Plin5 avg_logFC” value was 0.2963, the “Plin5 pct.1” value was 0.456 and the “Plscr1 avg_logFC” value was 0.4445. For the same compound, the “Pmpcb avg_logFC” value was −0.2636, the “Pmpcb pct.1” value was 0.356 and the “Pnkd A6logFC” value was −0.2928. For the same compound, the “Pon1 avg_logFC” value was −0.6858, the “Ppan avg_logFC” value was 0.2724 and the “Ppan pct.1” value was 0.255. The “Ppara avg_logFC” value was −0.2871, the “Ppara pct.1” value was 0.234 and the “Ppib avg_logFC” value was −0.5897. For the same compound, the “Ppip5k2 A6logFC” value was 0.3209, the “Ppip5k2 avg_logFC” value was 0.3209 and the “Ppip5k2 pct.1” value was 0.344. For the same compound, the “Ppl avg_logFC” value was 0.8798, the “Ppm1g A6logFC” value was 0.2522 and the “Ppm1g avg_logFC” value was 0.2522. The “Ppm1g pct.1” value was 0.358, the “Ppm1k avg_logFC” value was −0.5584 and the “Ppp1r3b avg_logFC” value was −0.4027. The “Ppp1r3b pct.1” value was 0.098, the “Ppp2r5a avg_logFC” value was −0.2605 and the “Ppp2r5a pct.1” value was 0.43. The “Prdx1 avg_logFC” value was −0.5292, the “Prdx4 avg_logFC” value was −0.4176 and the “Prdx4 pct.1” value was 0.372. The “Proc A6logFC” value was −0.2707, the “Prpf19 A6logFC” value was 0.2588 and the “Prpf19 avg_logFC” value was 0.2588. The “Prpf19 pct.1” value was 0.432, the “Prrc2c avg_logFC” value was 0.4393 and the “Prrc2c pct.1” value was 0.415. For the same compound, the “Psap A6logFC” value was 0.2578, the “Psap avg_logFC” value was 0.2578 and the “Psap pct.1” value was 0.556. For the same compound, the “Psat1 avg_logFC” value was 0.3012, the “Psen2 avg_logFC” value was −0.9474 and the “Psma1 A6logFC” value was −0.2567. The “Psma1 avg_logFC” value was −0.2567, the “Psma1 pct.1” value was 0.353 and the “Psma6 A6logFC” value was −0.3035. The “Psma6 avg_logFC” value was −0.3035, the “Psma6 pct.1” value was 0.501 and the “Psme1 avg_logFC” value was −0.394. For the same compound, the “Psme1 pct.1” value was 0.26, the “Ptpmt1 A6logFC” value was −0.256 and the “Ptpmt1 avg_logFC” value was −0.256. For the same compound, the “Ptpmt1 pct.1” value was 0.372, the “Ptpn1 avg_logFC” value was 0.4163 and the “Ptpn1 pct.1” value was 0.353. The “Ptpn11 A6logFC” value was 0.2778, the “Ptpn11 avg_logFC” value was 0.2778 and the “Ptpn11 pct.1” value was 0.37. For the same compound, the “Ptprc avg_logFC” value was 0.4165, the “Pvrl2 A6logFC” value was −0.2613 and the “Qdpr avg_logFC” value was −0.5236. For the same compound, the “Qdpr pct.1” value was 0.606, the “Rab6a A6logFC” value was 0.3234 and the “Rabac1 A6logFC” value was −0.266. For the same compound, the “Rabac1 avg_logFC” value was −0.266, the “Rabac1 pct.1” value was 0.346 and the “Rad54l2 avg_logFC” value was 0.3887. For the same compound, the “Rad54l2 pct.1” value was 0.325, the “Ranbp2 avg_logFC” value was 0.5985 and the “Rangap1 A6logFC” value was 0.2962. The “Rangap1 avg_logFC” value was 0.2962, the “Rangap1 pct.1” value was 0.387 and the “Rap1b A6logFC” value was 0.3408. The “Rap1b avg_logFC” value was 0.3408, the “Rap1b pct.1” value was 0.406 and the “Rarres2 avg_logFC” value was −0.5522. The “Rassf3 A6logFC” value was 0.2912, the “Rassf3 avg_logFC” value was 0.2912 and the “Rassf3 pct.1” value was 0.422. The “Rbm25 A6logFC” value was 0.4215, the “Rbm39 A6logFC” value was 0.2657 and the “Rbm39 avg_logFC” value was 0.2657. The “Rbm39 pct.1” value was 0.506, the “Rcan1 avg_logFC” value was 0.7073 and the “Rdh7 avg_logFC” value was −0.4186. For the same compound, the “Reep3 A6logFC” value was 0.409, the “Reep3 avg_logFC” value was 0.409 and the “Reep3 pct.1” value was 0.535. For the same compound, the “Rell1 avg_logFC” value was 0.5912, the “Retnlg avg_logFC” value was 0.3751 and the “Retsat avg_logFC” value was 0.4911. The “Rgs2 avg_logFC” value was 0.3957, the “Rgs2 pct.1” value was 0.138 and the “Riok3 A6logFC” value was 0.2916. For the same compound, the “Riok3 avg_logFC” value was 0.2916, the “Riok3 pct.1” value was 0.43 and the “Rmnd5a A6logFC” value was 0.3189. The “Rmnd5a avg_logFC” value was 0.3189, the “Rmnd5a pct.1” value was 0.47 and the “Rnase4 avg_logFC” value was −1.049. The “Rnaseh2c A6logFC” value was −0.3257, the “Rnd3 avg_logFC” value was 0.3655 and the “Rnd3 pct.1” value was 0.284. For the same compound, the “Rnf144a avg_logFC” value was 0.313, the “Rnf144a pct.1” value was 0.177 and the “Rnf169 A6logFC” value was 0.334. The “Rnf169 avg_logFC” value was 0.334, the “Rnf169 pct.1” value was 0.315 and the “Rock1 A6logFC” value was 0.2608. The “Rock1 avg_logFC” value was 0.2608, the “Rock1 pct.1” value was 0.413 and the “Rock2 avg_logFC” value was 0.5941. For the same compound, the “Romo1 A6logFC” value was −0.3359, the “Rora avg_logFC” value was 0.6444 and the “Rpl13a avg_logFC” value was −0.3815. The “Rpl13a pct.1” value was 0.704, the “Rpl13 avg_logFC” value was −0.2988 and the “Rpl13 pct.1” value was 0.294. The “Rpl14 A6logFC” value was −0.2776, the “Rpl14 avg_logFC” value was −0.2776 and the “Rpl14 pct.1” value was 0.372. The “Rpl34 A6logFC” value was −0.2976, the “Rpl36al avg_logFC” value was −0.4755 and the “Rpl36al pct.1” value was 0.284. The “Rplp1 avg_logFC” value was −0.5047, the “Rplp1 pct.1” value was 0.449 and the “Rps15 avg_logFC” value was −0.4552. For the same compound, the “Rps15 pct.1” value was 0.301, the “Rps18 avg_logFC” value was −0.4885 and the “Rps18 pct.1” value was 0.337. The “Rps24 A6logFC” value was −0.2625, the “Rps24 avg_logFC” value was −0.2625 and the “Rps24 pct.1” value was 0.453. The “Rps27l avg_logFC” value was −0.8659, the “Rraga A6logFC” value was 0.2626 and the “Rraga avg_logFC” value was 0.2626. The “Rraga pct.1” value was 0.337, the “Rsl1d1 A6logFC” value was 0.3461 and the “S100a8 avg_logFC” value was 1.128. The “S100a9 avg_logFC” value was 1.343, the “Saa4 avg_logFC” value was −0.571 and the “Sat1 avg_logFC” value was 0.6887. For the same compound, the “Sc5d avg_logFC” value was −0.5009, the “Sc5d pct.1” value was 0.58 and the “Scaf11 A6logFC” value was 0.3598. For the same compound, the “Sco2 avg_logFC” value was −0.2605, the “Sco2 pct.1” value was 0.353 and the “Scp2 avg_logFC” value was −0.5191. The “Sdad1 avg_logFC” value was 0.3124, the “Sdad1 pct.1” value was 0.289 and the “Sdc3 pct.1” value was 0.103. The “Sdc4 avg_logFC” value was 0.6196, the “Sdr9c7 A6logFC” value was −0.26 and the “Sec61b A6logFC” value was −0.2903. The “Sec1412 avg_logFC” value was −0.7897, the “Selenbp1 avg_logFC” value was −0.4937 and the “Selenbp1 pct.1” value was 0.401. The “Selenbp2 avg_logFC” value was −1.009, the “Selo A6logFC” value was −0.2574 and the “Selo avg_logFC” value was −0.2574. For the same compound, the “Selo pct.1” value was 0.217, the “Sema4g A6logFC” value was −0.2505 and the “Sema4g avg_logFC” value was −0.2505. The “Sema4g pct.1” value was 0.27, the “Serbp1 A6logFC” value was 0.3227 and the “Serbp1 avg_logFC” value was 0.3227. The “Serbp1 pct.1” value was 0.659, the “Serpina1a avg_logFC” value was −0.3785 and the “Serpina1e avg_logFC” value was −0.2684. The “Serpina1e pct.1” value was 0.99, the “Serpina3m avg_logFC” value was 0.9674 and the “Serpina3n avg_logFC” value was 0.8483. For the same compound, the “Serpina12 avg_logFC” value was −0.4534, the “Serpina12 pct.1” value was 0.232 and the “Serpina1d avg_logFC” value was −0.289. The “Serpina1d pct.1” value was 0.926, the “Sf3b1 A6logFC” value was 0.2888 and the “Sf3b1 avg_logFC” value was 0.2888. The “Sf3b1 pct.1” value was 0.508, the “Sgk1 A6logFC” value was 0.2843 and the “Shmt1 avg_logFC” value was −0.3932. The “Shmt1 pct.1” value was 0.339, the “Sigmar1 A6logFC” value was −0.3055 and the “Slc4a4 avg_logFC” value was 0.4203. For the same compound, the “Slc4a4 pct.1” value was 0.513, the “Slc10a2 avg_logFC” value was 0.299 and the “Slc10a2 pct.1” value was 0.255. The “Slc16a2 A6logFC” value was −0.252, the “Slc16a2 avg_logFC” value was −0.252 and the “Slc16a2 pct.1” value was 0.255. The “Slc16a6 avg_logFC” value was 0.9114, the “Slc16a10 A6logFC” value was −0.2548 and the “Slc16a10 avg_logFC” value was −0.2548. For the same compound, the “Slc16a10 pct.1” value was 0.196, the “Slc20a1 avg_logFC” value was 0.3572 and the “Slc20a1 pct.1” value was 0.284. The “Slc22a1 avg_logFC” value was −0.7979.
